Values quoted from earlier work in PMC5382172 (Frontiers in Molecular Neuroscience, 2017).

Columns and labels:
[1] = target: T1, GluClαWT/βWT receptor (Caenorhabditis elegans, UniProt G5EBR3+Q17328); parameters: method as in Degani-Katzav et al., [2016]; conditions: CHO cells co-transfected with WT α and β subunits; ref Degani-Katzav et al., [2016]; cited from earlier work
T1 construct: entry codes of the full-length subunits used in this study; expressed in transfected cells; host or cells: CHO cells, transient co-transfection 1:1, pcDNA3.1
T1 sequence (G5EBR3 21-461): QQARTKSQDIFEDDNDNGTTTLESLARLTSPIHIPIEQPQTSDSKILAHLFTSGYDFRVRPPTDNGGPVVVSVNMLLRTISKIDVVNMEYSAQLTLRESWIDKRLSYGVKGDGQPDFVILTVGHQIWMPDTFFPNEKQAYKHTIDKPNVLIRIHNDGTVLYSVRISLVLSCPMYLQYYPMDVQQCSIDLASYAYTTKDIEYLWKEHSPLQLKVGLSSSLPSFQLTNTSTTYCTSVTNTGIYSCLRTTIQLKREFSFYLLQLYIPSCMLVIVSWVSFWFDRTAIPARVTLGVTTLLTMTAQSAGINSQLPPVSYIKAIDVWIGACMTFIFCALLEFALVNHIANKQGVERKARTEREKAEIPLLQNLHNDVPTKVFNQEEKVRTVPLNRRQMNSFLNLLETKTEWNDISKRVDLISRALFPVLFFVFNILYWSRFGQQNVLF
T1 sequence (Q17328 23-434): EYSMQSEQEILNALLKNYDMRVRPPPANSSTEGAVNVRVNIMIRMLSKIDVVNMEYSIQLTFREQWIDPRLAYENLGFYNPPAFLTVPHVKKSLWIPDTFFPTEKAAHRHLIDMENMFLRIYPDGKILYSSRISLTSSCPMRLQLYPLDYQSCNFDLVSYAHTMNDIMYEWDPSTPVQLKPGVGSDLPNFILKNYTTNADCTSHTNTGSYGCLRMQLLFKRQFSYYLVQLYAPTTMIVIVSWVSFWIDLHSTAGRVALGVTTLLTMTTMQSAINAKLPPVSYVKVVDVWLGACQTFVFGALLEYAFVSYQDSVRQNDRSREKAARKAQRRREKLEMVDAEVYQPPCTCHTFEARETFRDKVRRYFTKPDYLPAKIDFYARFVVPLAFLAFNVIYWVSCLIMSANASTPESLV

[2] = target: T2, GluClαWT (GLC-1) homomeric receptor (Caenorhabditis elegans, UniProt G5EBR3); parameters: method as in Degani-Katzav et al., [2016]; conditions: CHO cells, αWT alone; ref Degani-Katzav et al., [2016]; cited from earlier work
T2 construct: entry codes of the full-length subunits used in this study; expressed in transfected cells; host or cells: CHO cells, transient transfection, pcDNA3.1
T2 sequence (G5EBR3 21-461): T1 sequence (G5EBR3 21-461)

In the case of `CC[C@H](C)[C@H]1O[C@]2(CC[C@@H]1C)C[C@@H]1C[C@@H](C/C=C(\C)[C@@H](O[C@H]3C[C@H](OC)[C@@H](O[C@H]4C[C@H](OC)[C@@H](O)[C@H](C)O4)[C@H](C)O3)[C@@H](C)/C=C/C=C3\CO[C@@H]4[C@H](O)C(C)=C[C@@H](C(=O)O1)[C@]34O)O2` [IVM, ivermectin], the “response to IVM” value [1] is given as “robust responses” and the “response to 500 nM IVM” value [2] is given as “robust responses”.
